According to ChEMBL document CHEMBL1909046, “DrugMatrix in vitro pharmacology data”:

Legend:
[1] = target: Receptor tyrosine-protein kinase erbB-2 (Homo sapiens, UniProt P04626); type: cell-based; settings: insect cells;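 note: inhibition of HER2 kinase enzyme activity, measured with Poly(Glu:Tyr) as the phosphorylation substrate; in other assays of this panel Not Active means under 50% inhibition at 10 µM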
Nitric oxide synthase 1 = Nitric oxide synthase 1 (Rattus norvegicus, UniProt P29476); type: tissue-based, Cerebellum; note: in other assays of this panel Not Active means under 50% inhibition at 10 µM
Chain of Nitric oxide synthase 1 (P29476 whole entry): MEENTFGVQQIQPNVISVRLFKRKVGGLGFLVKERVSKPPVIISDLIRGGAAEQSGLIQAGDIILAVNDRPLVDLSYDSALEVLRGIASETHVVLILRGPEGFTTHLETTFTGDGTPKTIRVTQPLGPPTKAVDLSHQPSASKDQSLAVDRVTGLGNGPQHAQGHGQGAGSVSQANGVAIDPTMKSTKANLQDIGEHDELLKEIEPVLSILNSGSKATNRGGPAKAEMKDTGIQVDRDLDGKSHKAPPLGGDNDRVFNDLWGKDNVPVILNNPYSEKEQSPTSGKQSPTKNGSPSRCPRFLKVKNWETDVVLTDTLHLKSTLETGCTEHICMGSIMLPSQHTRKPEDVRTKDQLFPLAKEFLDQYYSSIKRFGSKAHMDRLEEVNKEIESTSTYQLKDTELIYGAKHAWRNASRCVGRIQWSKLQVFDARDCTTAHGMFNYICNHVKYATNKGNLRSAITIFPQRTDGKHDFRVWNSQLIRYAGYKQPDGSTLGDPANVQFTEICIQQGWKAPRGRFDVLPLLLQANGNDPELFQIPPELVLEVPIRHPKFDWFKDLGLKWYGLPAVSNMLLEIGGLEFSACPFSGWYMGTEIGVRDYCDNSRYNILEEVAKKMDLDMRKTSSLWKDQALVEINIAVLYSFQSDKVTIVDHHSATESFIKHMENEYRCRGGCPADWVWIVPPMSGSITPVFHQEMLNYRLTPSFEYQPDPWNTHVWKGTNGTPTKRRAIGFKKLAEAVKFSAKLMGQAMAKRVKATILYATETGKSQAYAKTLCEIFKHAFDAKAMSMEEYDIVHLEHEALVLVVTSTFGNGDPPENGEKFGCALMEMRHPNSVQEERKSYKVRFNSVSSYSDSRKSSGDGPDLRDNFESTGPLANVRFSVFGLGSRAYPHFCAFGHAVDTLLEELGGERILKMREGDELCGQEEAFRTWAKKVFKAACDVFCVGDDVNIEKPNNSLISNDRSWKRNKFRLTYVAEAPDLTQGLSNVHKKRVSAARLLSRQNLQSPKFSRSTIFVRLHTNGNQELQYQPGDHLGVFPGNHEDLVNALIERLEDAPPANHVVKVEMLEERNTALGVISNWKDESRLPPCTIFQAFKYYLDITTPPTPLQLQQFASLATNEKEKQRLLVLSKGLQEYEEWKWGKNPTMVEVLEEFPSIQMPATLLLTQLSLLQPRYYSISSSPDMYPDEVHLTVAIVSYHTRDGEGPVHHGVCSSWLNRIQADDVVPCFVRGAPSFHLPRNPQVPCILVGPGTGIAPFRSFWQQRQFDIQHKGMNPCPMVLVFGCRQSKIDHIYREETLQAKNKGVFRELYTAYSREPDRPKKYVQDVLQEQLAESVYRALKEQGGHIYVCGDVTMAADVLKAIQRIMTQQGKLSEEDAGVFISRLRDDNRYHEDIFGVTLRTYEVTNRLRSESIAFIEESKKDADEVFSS

[2] = target: Protein kinase C alpha type (Homo sapiens, UniProt P17252); type: cell-based; settings: sf9;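 note: inhibition of PKCalpha kinase activity measured in an enzyme assay with histone as the phosphorylation substrate; in other assays of this panel Not Active means under 50% inhibition at 10 µM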
[3] = target: T1, Vasoactive intestinal polypeptide receptor 1 (Homo sapiens, UniProt P32241); type: cell membranes, Membrane; settings: ht-29; note: in other assays of this panel Not Active means under 50% inhibition at 10 µM
T1 sequence (P32241 whole entry): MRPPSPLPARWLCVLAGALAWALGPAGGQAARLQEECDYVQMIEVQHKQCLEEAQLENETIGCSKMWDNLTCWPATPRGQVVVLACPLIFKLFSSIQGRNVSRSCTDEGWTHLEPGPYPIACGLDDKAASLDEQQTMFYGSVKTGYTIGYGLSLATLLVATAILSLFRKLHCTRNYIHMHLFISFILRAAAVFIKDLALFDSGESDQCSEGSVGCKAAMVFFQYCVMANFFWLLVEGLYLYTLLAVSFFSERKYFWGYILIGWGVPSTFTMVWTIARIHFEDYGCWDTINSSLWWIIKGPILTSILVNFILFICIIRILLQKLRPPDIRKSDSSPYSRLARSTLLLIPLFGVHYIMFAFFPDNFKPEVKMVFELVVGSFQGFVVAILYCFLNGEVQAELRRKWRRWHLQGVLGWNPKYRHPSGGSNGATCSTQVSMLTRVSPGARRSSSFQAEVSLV

[4] = target: Epidermal growth factor receptor (Homo sapiens, UniProt P00533); experiment: DRUGMATRIX: Protein Tyrosine Kinase, EGF Receptor enzyme inhibition (substrate: Poly(Glu:Tyr)); type: cell-based, Insect cells; settings: insect cells; Not Active = under 50% inhibition at 10 µM
Chain of Epidermal growth factor receptor (P00533 whole entry): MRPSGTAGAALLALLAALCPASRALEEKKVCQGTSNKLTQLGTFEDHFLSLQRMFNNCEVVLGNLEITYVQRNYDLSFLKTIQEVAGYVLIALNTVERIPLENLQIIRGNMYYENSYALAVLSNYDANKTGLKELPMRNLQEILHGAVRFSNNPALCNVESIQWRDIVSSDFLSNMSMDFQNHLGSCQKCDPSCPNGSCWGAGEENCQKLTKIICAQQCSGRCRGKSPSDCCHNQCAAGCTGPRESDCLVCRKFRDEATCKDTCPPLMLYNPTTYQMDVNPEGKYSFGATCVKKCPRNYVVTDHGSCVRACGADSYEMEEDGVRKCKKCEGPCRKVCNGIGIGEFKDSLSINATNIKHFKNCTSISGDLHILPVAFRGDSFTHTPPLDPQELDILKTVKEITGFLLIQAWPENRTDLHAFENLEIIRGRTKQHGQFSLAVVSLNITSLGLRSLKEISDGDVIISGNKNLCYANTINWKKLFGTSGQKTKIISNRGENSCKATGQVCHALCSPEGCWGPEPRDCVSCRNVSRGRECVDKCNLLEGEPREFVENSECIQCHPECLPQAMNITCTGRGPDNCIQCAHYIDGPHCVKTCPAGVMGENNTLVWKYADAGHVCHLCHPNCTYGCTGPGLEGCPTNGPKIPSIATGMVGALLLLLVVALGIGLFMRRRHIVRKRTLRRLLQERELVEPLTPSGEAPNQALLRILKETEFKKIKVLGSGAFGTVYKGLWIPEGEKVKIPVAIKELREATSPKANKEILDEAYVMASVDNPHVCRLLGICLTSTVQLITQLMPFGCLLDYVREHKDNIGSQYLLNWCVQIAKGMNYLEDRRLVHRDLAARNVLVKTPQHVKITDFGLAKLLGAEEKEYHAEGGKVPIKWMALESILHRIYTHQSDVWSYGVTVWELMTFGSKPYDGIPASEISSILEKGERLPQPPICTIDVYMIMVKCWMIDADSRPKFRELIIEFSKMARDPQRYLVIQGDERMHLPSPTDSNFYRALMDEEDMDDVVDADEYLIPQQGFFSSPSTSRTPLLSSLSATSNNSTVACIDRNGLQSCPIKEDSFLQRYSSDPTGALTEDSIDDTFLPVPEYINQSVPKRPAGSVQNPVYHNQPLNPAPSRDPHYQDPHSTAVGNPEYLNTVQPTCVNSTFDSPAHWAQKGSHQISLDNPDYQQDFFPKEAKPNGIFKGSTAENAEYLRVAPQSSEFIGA

Cytochrome P450 3A4 = Cytochrome P450 3A4 (Homo sapiens, UniProt P08684); settings: bti-tn-5b1-4; note: in other assays of this panel Not Active means under 50% inhibition at 10 µM
Chain of Cytochrome P450 3A4 (P08684 whole entry): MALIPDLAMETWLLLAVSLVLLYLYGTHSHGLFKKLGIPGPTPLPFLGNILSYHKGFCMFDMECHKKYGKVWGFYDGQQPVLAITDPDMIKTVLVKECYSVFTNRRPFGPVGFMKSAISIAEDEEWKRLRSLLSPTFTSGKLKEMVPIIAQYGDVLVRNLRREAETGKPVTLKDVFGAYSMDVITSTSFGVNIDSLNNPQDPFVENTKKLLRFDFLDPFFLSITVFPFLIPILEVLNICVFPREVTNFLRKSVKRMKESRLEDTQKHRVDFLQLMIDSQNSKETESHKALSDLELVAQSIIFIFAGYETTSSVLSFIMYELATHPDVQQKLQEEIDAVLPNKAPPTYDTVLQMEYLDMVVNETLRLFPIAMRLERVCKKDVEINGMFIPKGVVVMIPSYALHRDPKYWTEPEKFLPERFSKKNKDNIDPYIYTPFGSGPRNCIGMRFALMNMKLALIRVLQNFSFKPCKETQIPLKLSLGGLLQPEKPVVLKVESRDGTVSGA

Leukotriene C4 synthase = target: T2, Leukotriene C4 synthase (Cavia porcellus, UniProt A6XA80); experiment: biochemical; type: tissue-based, Lung
T2 sequence (A6XA80 whole entry): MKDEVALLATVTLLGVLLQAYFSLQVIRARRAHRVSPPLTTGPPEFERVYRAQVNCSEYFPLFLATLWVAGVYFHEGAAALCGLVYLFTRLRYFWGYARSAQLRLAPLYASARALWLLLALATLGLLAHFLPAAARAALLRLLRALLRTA

[5] = target: T3, Cysteinyl leukotriene receptor 1 (Homo sapiens, UniProt Q9Y271); type: cell membranes, CHO-K1, Membrane; settings: cho-k1; note: in other assays of this panel Not Active means under 50% inhibition at 10 µM
T3 sequence (Q9Y271 whole entry): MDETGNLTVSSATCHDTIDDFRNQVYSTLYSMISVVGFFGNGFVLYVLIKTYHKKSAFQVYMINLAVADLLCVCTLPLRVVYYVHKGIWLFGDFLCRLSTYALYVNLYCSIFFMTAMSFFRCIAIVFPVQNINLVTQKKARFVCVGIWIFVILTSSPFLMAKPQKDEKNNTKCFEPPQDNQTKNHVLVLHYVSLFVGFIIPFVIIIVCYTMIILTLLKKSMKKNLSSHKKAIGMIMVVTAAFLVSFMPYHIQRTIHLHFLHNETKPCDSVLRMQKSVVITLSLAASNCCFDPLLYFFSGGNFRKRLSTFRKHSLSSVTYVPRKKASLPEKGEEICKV

Chain of Receptor tyrosine-protein kinase erbB-2 (P04626 whole entry): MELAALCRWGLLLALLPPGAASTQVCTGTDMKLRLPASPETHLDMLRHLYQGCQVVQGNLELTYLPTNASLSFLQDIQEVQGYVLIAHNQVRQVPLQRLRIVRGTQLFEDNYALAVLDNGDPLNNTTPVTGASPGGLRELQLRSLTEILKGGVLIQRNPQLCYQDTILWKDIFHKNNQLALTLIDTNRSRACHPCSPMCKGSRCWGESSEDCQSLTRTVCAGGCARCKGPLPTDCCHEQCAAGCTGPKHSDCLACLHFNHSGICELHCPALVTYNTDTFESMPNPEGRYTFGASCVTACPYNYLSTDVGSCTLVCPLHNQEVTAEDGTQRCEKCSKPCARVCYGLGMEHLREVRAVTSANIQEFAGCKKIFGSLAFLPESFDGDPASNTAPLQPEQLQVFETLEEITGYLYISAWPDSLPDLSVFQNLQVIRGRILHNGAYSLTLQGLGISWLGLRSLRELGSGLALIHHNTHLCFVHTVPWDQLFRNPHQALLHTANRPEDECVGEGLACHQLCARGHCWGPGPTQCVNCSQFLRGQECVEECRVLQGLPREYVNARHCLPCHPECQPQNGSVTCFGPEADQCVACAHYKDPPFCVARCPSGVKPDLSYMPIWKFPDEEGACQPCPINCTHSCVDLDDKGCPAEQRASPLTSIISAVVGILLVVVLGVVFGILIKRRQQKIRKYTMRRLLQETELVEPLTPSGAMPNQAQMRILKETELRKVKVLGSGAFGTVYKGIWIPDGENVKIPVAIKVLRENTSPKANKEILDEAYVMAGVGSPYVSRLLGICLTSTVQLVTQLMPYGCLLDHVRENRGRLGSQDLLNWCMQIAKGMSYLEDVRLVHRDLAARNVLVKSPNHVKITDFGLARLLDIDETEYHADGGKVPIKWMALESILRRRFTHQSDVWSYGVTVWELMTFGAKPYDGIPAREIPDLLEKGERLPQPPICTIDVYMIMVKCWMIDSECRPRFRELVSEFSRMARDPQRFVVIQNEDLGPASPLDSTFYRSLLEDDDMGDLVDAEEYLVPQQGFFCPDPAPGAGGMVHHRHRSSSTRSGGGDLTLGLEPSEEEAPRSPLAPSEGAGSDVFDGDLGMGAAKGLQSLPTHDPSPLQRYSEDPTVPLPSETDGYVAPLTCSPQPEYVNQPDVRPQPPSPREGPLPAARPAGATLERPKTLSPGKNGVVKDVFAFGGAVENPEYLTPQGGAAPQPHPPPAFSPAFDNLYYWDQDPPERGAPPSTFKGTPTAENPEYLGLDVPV

O=C(Nc1ccc(Cl)c(Cl)c1)c1cc(Cl)cc(Cl)c1O [3,3',4',5-TETRACHLOROSALICYLANILIDE]
Not Active: IC50 [1] | IC50 (Nitric oxide synthase 1) | IC50 [2] | IC50 [3] | IC50 [4] | IC50 (Cytochrome P450 3A4) | Ki (Cytochrome P450 3A4) | IC50 (Leukotriene C4 synthase) | IC50 [5]

O=C(O)COC(=O)Cc1ccccc1Nc1c(Cl)cccc1Cl [ACECLOFENAC]
Not Active: IC50 [1] | IC50 (Nitric oxide synthase 1) | IC50 [2] | IC50 [3] | IC50 [4] | IC50 (Cytochrome P450 3A4) | Ki (Cytochrome P450 3A4) | IC50 (Leukotriene C4 synthase) | IC50 [5]

CCN1C[C@]2(COC)[C@H](O)C[C@H](OC)[C@@]34[C@@H]5C[C@@]6(O)[C@H](OC(=O)c7ccccc7)[C@@H]5[C@@](OC(C)=O)([C@@H]([C@H](OC)[C@H]23)[C@@H]14)[C@@H](O)[C@@H]6OC [ACONITINE]
Not Active: IC50 [1] | IC50 (Nitric oxide synthase 1) | IC50 [2] | IC50 [3] | IC50 [4] | IC50 (Cytochrome P450 3A4) | Ki (Cytochrome P450 3A4) | IC50 (Leukotriene C4 synthase) | IC50 [5]

CCO [ALCOHOL]
Not Active: IC50 [1] | IC50 (Nitric oxide synthase 1) | IC50 [2] | IC50 [3] | IC50 [4] | IC50 (Cytochrome P450 3A4) | Ki (Cytochrome P450 3A4) | IC50 (Leukotriene C4 synthase) | IC50 [5]

OC[C@H]1O[C@@H]2O[C@H]3[C@H](O)[C@@H](O)[C@@H](O[C@H]4[C@H](O)[C@@H](O)[C@@H](O[C@H]5[C@H](O)[C@@H](O)[C@@H](O[C@H]6[C@H](O)[C@@H](O)[C@@H](O[C@H]7[C@H](O)[C@@H](O)[C@@H](O[C@H]1[C@H](O)[C@H]2O)O[C@@H]7CO)O[C@@H]6CO)O[C@@H]5CO)O[C@@H]4CO)O[C@@H]3CO [ALFADEX]
Not Active: IC50 [1] | IC50 (Nitric oxide synthase 1) | IC50 [2] | IC50 [3] | IC50 [4] | IC50 (Cytochrome P450 3A4) | Ki (Cytochrome P450 3A4) | IC50 (Leukotriene C4 synthase) | IC50 [5]

Oc1ncnc2[nH]ncc12 [ALLOPURINOL]
Not Active: IC50 [1] | IC50 (Nitric oxide synthase 1) | IC50 [2] | IC50 [3] | IC50 [4] | IC50 (Cytochrome P450 3A4) | Ki (Cytochrome P450 3A4) | IC50 (Leukotriene C4 synthase) | IC50 [5]

C=CCO [ALLYL ALCOHOL]
Not Active: IC50 [1] | IC50 (Nitric oxide synthase 1) | IC50 [2] | IC50 [3] | IC50 [4] | IC50 (Cytochrome P450 3A4) | Ki (Cytochrome P450 3A4) | IC50 (Leukotriene C4 synthase) | IC50 [5]

Nc1nc(N)c2nc(CNc3ccc(C(=O)N[C@@H](CCC(=O)O)C(=O)O)cc3)cnc2n1 [AMINOPTERIN]
Not Active: IC50 [1] | IC50 (Nitric oxide synthase 1) | IC50 [2] | IC50 [3] | IC50 [4] | IC50 (Cytochrome P450 3A4) | Ki (Cytochrome P450 3A4) | IC50 (Leukotriene C4 synthase) | IC50 [5]

Nc1ccc(C(=O)O)c(O)c1 [AMINOSALICYLIC ACID]
Not Active: IC50 [1] | IC50 (Nitric oxide synthase 1) | IC50 [2] | IC50 [3] | IC50 [4] | IC50 (Cytochrome P450 3A4) | Ki (Cytochrome P450 3A4) | IC50 (Leukotriene C4 synthase) | IC50 [5]

C[C@@H]1[C@H](O)[C@@H](C)/C=C/C=C/C=C/C=C/C=C/C=C/C=C/[C@H](O[C@@H]2O[C@H](C)[C@@H](O)[C@H](N)[C@@H]2O)C[C@@H]2O[C@](O)(C[C@@H](O)C[C@@H](O)[C@H](O)CC[C@@H](O)C[C@@H](O)CC(=O)O[C@H]1C)C[C@H](O)[C@H]2C(=O)O [AMPHOTERICIN B]
Not Active: IC50 [1] | IC50 (Nitric oxide synthase 1) | IC50 [2] | IC50 [3] | IC50 [4] | IC50 (Cytochrome P450 3A4) | Ki (Cytochrome P450 3A4) | IC50 (Leukotriene C4 synthase) | IC50 [5]

C[C@]12CC[C@@H](O)C[C@@H]1CC[C@@H]1[C@@H]2CC[C@]2(C)C(=O)CC[C@@H]12 [ANDROSTERONE]
Not Active: IC50 [1] | IC50 (Nitric oxide synthase 1) | IC50 [2] | IC50 [3] | IC50 [4] | IC50 (Cytochrome P450 3A4) | Ki (Cytochrome P450 3A4) | IC50 (Leukotriene C4 synthase) | IC50 [5]

NCC(CC(=O)O)c1ccc(Cl)cc1 (centres undefined) [BACLOFEN]
Not Active: IC50 [1] | IC50 (Nitric oxide synthase 1) | IC50 [2] | IC50 [3] | IC50 [4] | IC50 (Cytochrome P450 3A4) | Ki (Cytochrome P450 3A4) | IC50 (Leukotriene C4 synthase) | IC50 [5]

O=C(O)c1ccccc1 [BENZOIC ACID]
Not Active: IC50 [1] | IC50 (Nitric oxide synthase 1) | IC50 [2] | IC50 [3] | IC50 [4] | IC50 (Cytochrome P450 3A4) | Ki (Cytochrome P450 3A4) | IC50 (Leukotriene C4 synthase) | IC50 [5]

c1ccc2sc(SSc3nc4ccccc4s3)nc2c1 [BENZOTHIAZYL DISULFIDE]
Not Active: IC50 [1] | IC50 (Nitric oxide synthase 1) | IC50 [2] | IC50 [3] | IC50 [4] | IC50 (Cytochrome P450 3A4) | Ki (Cytochrome P450 3A4) | IC50 (Leukotriene C4 synthase) | IC50 [5]

OC[C@H]1O[C@@H]2O[C@H]3[C@H](O)[C@@H](O)[C@@H](O[C@H]4[C@H](O)[C@@H](O)[C@@H](O[C@H]5[C@H](O)[C@@H](O)[C@@H](O[C@H]6[C@H](O)[C@@H](O)[C@@H](O[C@H]7[C@H](O)[C@@H](O)[C@@H](O[C@H]8[C@H](O)[C@@H](O)[C@@H](O[C@H]1[C@H](O)[C@H]2O)O[C@@H]8CO)O[C@@H]7CO)O[C@@H]6CO)O[C@@H]5CO)O[C@@H]4CO)O[C@@H]3CO [BETADEX]
Not Active: IC50 [1] | IC50 (Nitric oxide synthase 1) | IC50 [2] | IC50 [3] | IC50 [4] | IC50 (Cytochrome P450 3A4) | Ki (Cytochrome P450 3A4) | IC50 (Leukotriene C4 synthase) | IC50 [5]

CC(C)(c1ccc(O)cc1)c1ccc(O)cc1 [BISPHENOL A]
Not Active: IC50 [1] | IC50 (Nitric oxide synthase 1) | IC50 [2] | IC50 [3] | IC50 [4] | IC50 (Cytochrome P450 3A4) | Ki (Cytochrome P450 3A4) | IC50 (Leukotriene C4 synthase) | IC50 [5]
